In US20220144815A1, “1,3,4-OXADIAZOLES AND THEIR DERIVATIVES AS NEW ANTIFUNGAL AGENTS” (Bayer Aktiengesellschaft, priority 2018, published 2022) one finds pest or weed control, chromatographic logP and inhibition of growth data, which are given here for 17 molecules.

The subject of one series is Botrytis cinerea. The experiment in a line: Example C: in vivo preventive test (grey mould) on gherkin or cabbage. The conditions noted are these: 500 ppm of active ingredient, preventive spray, evaluated 4 to 5 days after inoculation, read-out: efficacy. The method, then:
Solvent: 5% by volume of dimethyl sulfoxide • 10% by volume of acetone Emulsifier: 1 μl of Tween® 80 per mg of active ingredient The tested compounds were made soluble and homogenized in a mixture of dimethyl sulfoxide/acetone/Tween® 80 and then diluted in water to the desired concentration. The young plants of gherkin or cabbage were treated by spraying the tested compound prepared as described above. Control plants were treated only with an aqueous solution of acetone/dimethyl sulfoxide/Tween® 80. After 24 hours, the plants were contaminated by spraying the leaves with an aqueous suspension of Botrytis cinerea spores. The contaminated gherkin plants were incubated for 4 to 5 days at 17° C. and at 90% relative humidity. The contaminated cabbage plants were incubated for 4 to 5 days at 20° C. and at 100% relative humidity. The test was evaluated 4 to 5 days after the inoculation. 0% means an efficacy which corresponds to that of the control plants while an efficacy of 100% means that no disease was observed.

The nature of series [1]: Log P by HPLC on reversed phase columns, method [a] (EEC directive 79/831 Annex V.A8). In kind it is physicochemical. Conditions: reversed phase HPLC column. The essentials:
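Log P calibrated with C3–C16 straight-chain alkan-2-ones of known Log P, interpolating linearly between retention times. Method per EEC 79/831 Annex V.A8: reversed-phase LC-UV in the acidic range, water/0.1% formic acid and acetonitrile gradient from 10% to 95% acetonitrile.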

A further series concerns Phakopsora pachyrhizi. Nature of the series: Example F: in vivo preventive test (soybeans), DMSO/acetone/Tween 80. Conditions: 288 h, 500 ppm of tested compound, preventive spray, soybean, evaluated 12 days after inoculation, read-out: efficacy. On the procedure:
Solvent: 5% by volume of dimethyl sulfoxide • 10% by volume of acetone
Emulsifier: 1 μL of Tween® 80 per mg of active ingredient
The tested compounds were made soluble and homogenized in a mixture of dimethyl sulfoxide/acetone/Tween® 80 and then diluted in water to the desired concentration.
The young plants of wheat were treated by spraying the tested compound prepared as described above. Control plants were treated only with an aqueous solution of acetone/dimethyl sulfoxide/Tween® 80.
After 24 hours, the plants were contaminated by spraying the leaves with an aqueous suspension of Phakospora pachyrhizi spores. The contaminated soybean plants were incubated for 24 hours at 24° C. and at 100% relative humidity and then for 11 days at 24° C. and at 70-80% relative humidity.
The test was evaluated 12 days after the inoculation. 0% means an efficacy which corresponds to that of the control plants while an efficacy of 100% means that no disease was observed.

The test system of another series is Puccinia recondita. Nature of the series: Example D: in vivo preventive test (brown rust on wheat). Conditions: 264 h, 500 ppm of tested compound, preventive spray, evaluated 11 days after inoculation, read-out: efficacy. On the procedure: Solvent: 5% by volume of dimethyl sulfoxide • 10% by volume of acetone Emulsifier: 1 μL of Tween® 80 per mg of active ingredient The tested compounds were made soluble and homogenized in a mixture of dimethyl sulfoxide/acetone/Tween® 80 and then diluted in water to the desired concentration. The young plants of wheat were treated by spraying the tested compound prepared as described above. Control plants were treated only with an aqueous solution of acetone/dimethyl sulfoxide/Tween® 80. After 24 hours, the plants were contaminated by spraying the leaves with an aqueous suspension of Puccinia recondita spores. The contaminated wheat plants were incubated for 24 hours at 20° C. and at 100% relative humidity and then for 10 days at 20° C. and at 70-80% relative humidity. The test was evaluated 11 days after the inoculation. 0% means an efficacy which corresponds to that of the control plants while an efficacy of 100% means that no disease was observed.

Series [2] concerns Colletotrichum lindemuthianum. Nature of the series: Example B: in vitro cell test, spore germination and mycelium growth in liquid culture. Format: cell-based. The conditions noted are these: 144 h, 20 ppm of tested compound, 6 days incubation, read-out: efficacy (inhibition of fungal growth). The method, then:
• Solvent: dimethyl sulfoxide Culture medium: 14.6 g anhydrous D-glucose (VWR), • 7.1 g mycological peptone (Oxoid), • 1.4 g granulated yeast extract (Merck), QSP 1 liter Inoculum: spore suspension The tested compounds were solubilized in dimethyl sulfoxide and the solution used to prepare the required range of concentrations. The final concentration of dimethyl sulfoxide used in the assay was ≤1%. A spore suspension of Colletotrichum lindemuthianum was prepared and diluted to the desired spore density. The compounds were evaluated for their ability to inhibit spore germination and mycelium growth in liquid culture assay. The compounds were added in the desired concentration to the culture medium with spores. After 6 days incubation, fungi-toxicity of compounds was determined by spectrometric measurement of mycelium growth. Inhibition of fungal growth was determined by comparing the absorbance values in wells containing the tested compounds with the absorbance in control wells without tested compounds.

In the next series the test system is Alternaria brassicae. Nature of the series: Example E: in vivo preventive test (cabbage). The conditions noted are these: 144 h, 500 ppm of tested compound, preventive spray, evaluated 6 days after inoculation, read-out: efficacy. The method, then:
Solvent: 5% by volume of dimethyl sulfoxide • 10% by volume of acetone Emulsifier: 1 μL of Tween® 80 per mg of active ingredient The tested compounds were made soluble and homogenized in a mixture of Dimethyl sulfoxide/Acetone/Tween® 80 and then diluted in water to the desired concentration. The young plants of cabbage were treated by spraying the tested compound prepared as described above. Control plants were treated only with an aqueous solution of Acetone/Dimethyl sulfoxide/Tween® 80. After 24 hours, the plants were contaminated by spraying the leaves with an aqueous suspension of Alternaria brassicae spores. The contaminated cabbage plants were incubated for 6 days at 20° C. and at 100% relative humidity. The test was evaluated 6 days after the inoculation. 0% means an efficacy which corresponds to that of the control plants while an efficacy of 100% means that no disease was observed.

Where [3] appears, read: log P determined according to method [a] (HPLC on reversed phase columns), read-out: logP.
[4] abbreviates: method [a], HPLC on reversed phase columns, read-out: logP.

SMILES strings stand for the structures. Like-named read-outs stand apart in the source and are kept apart here.

With `Nc1ccc(-c2nnc(C(F)F)o2)cn1` [I.030, 5-[5-(difluoromethyl)-1,3,4-oxadiazol-2-yl]pyridin-2-amine], the pest or weed control at 500 ppm in the series on Botrytis cinerea lay in the range of 80 to 89%.

`CC(=O)Nc1ccc(-c2nnc(C(F)F)o2)cn1` [I.034, N-{5-[5-(difluoromethyl)-1,3,4-oxadiazol-2-yl]pyridin-2-yl}acetamide]: the pest or weed control at 500 ppm in the series with Botrytis cinerea was 80 to 89%.

Turning to `O=C(Cc1ccccc1)Nc1ccc(-c2nnc(C(F)F)o2)cn1` [I.050, N-{5-[5-(difluoromethyl)-1,3,4-oxadiazol-2-yl]pyridin-2-yl}-2-phenylacetamide], in the series on Botrytis cinerea, the pest or weed control at 500 ppm lay within 80 to 89%.

Consider `Fc1ccccc1Nc1ccc(-c2nnc(C(F)(F)Cl)o2)cn1` [I.053, 5-{5-[chloro(difluoro)methyl]-1,3,4-oxadiazol-2-yl}-N-(2-fluorophenyl)pyridin-2-amine], for which, in the series with Botrytis cinerea, the pest or weed control at 500 ppm is 80 to 89%.

Consider `Fc1ccccc1Nc1ncc(-c2nnc(C(F)(F)F)o2)cn1` [I.116, N-(2-fluorophenyl)-5-[5-(trifluoromethyl)-1,3,4-oxadiazol-2-yl]pyrimidin-2-amine], for which the pest or weed control at 500 ppm in the series with Botrytis cinerea was in the range of 80 to 89%. In addition, the chromatographic logP in series [1] (setting [3]) stood at 2.99.

Take `Cc1ccccc1C1(Nc2ncc(-c3nnc(C(F)F)o3)cn2)CC1` [I.132, 5-[5-(difluoromethyl)-1,3,4-oxadiazol-2-yl]-N-[1-(2-methylphenyl)cyclopropyl]pyrimidin-2-amine]: the chromatographic logP in series [1] (setting [3]) was 3.23. In addition, the pest or weed control at 500 µg/mL with Phakopsora pachyrhizi was in the range of 90 to 100%; in the series on Puccinia recondita, 80 to 89%. Further, in series [2], the inhibition of growth at 20 µg/mL was 70 to 79%.

With `Cc1ccc(C2(Nc3ncc(-c4nnc(C(F)F)o4)cn3)CC2)cc1` [I.133, 5-[5-(difluoromethyl)-1,3,4-oxadiazol-2-yl]-N-[1-(4-methylphenyl)cyclopropyl]pyrimidin-2-amine], in series [1] (setting [3]), the chromatographic logP was determined as 3. Further, the pest or weed control at 500 µg/mL in the series with Phakopsora pachyrhizi fell in the range of 90 to 100%; in the series on Puccinia recondita, 90 to 100%; with Alternaria brassicae it was 70 to 79%.

Take `FC(F)c1nnc(-c2cnc(NC3(c4ccccn4)CCC3)nc2)o1` [I.137, 5-[5-(difluoromethyl)-1,3,4-oxadiazol-2-yl]-N-[1-(pyridin-2-yl)cyclobutyl]pyrimidin-2-amine]: the chromatographic logP in series [1] (setting [3]) is 1.2. In addition, the pest or weed control at 500 µg/mL in the series with Phakopsora pachyrhizi, with Puccinia recondita and in the series with Alternaria brassicae was 90 to 100% each time.

For the molecule `Fc1cccc(C2(Nc3ncc(-c4nnc(C(F)F)o4)cn3)CC2)c1` [I.145, 5-[5-(difluoromethyl)-1,3,4-oxadiazol-2-yl]-N-[1-(3-fluorophenyl)cyclopropyl]pyrimidin-2-amine], the chromatographic logP in series [1] (setting [3]) was determined as 2.72. Further, the pest or weed control at 500 µg/mL with Phakopsora pachyrhizi and in the series on Puccinia recondita was 90 to 100% in each case. In addition, the inhibition of growth at 20 µg/mL in series [2] is 80 to 89%.

As for `CC(C)(Nc1ncc(-c2nnc(C(F)F)o2)cn1)c1ccc(F)cc1` [I.150, 5-[5-(difluoromethyl)-1,3,4-oxadiazol-2-yl]-N-[2-(4-fluorophenyl)propan-2-yl]pyrimidin-2-amine], in series [1] (Method A: LC-UV, acidic range, 0.1% formic acid in water and acetonitrile, read-out: Log P), the chromatographic logP was 3.26. Moreover, the pest or weed control at 500 µg/mL in the series with Phakopsora pachyrhizi is 90 to 100%; in the series with Puccinia recondita, 90 to 100%; in the series on Alternaria brassicae, 70 to 79%. Also, the inhibition of growth at 20 µg/mL in series [2] lay within 80 to 89%.

For the molecule `FC(F)c1nnc(-c2cnc(NC3(c4ccccc4)CCCC3)nc2)o1` [I.153, 5-[5-(difluoromethyl)-1,3,4-oxadiazol-2-yl]-N-(1-phenylcyclopentyl)pyrimidin-2-amine], the pest or weed control at 500 ppm in the series on Botrytis cinerea lay within 70 to 79%. The chromatographic logP in series [1] (setting [3]) was 3.57.

With `COc1cccc(C2(Nc3ncc(-c4nnc(C(F)F)o4)cn3)CC2)c1` [I.156, 5-[5-(difluoromethyl)-1,3,4-oxadiazol-2-yl]-N-[1-(3-methoxyphenyl)cyclopropyl]pyrimidin-2-amine], in series [1] (setting [3]), the chromatographic logP worked out at 2.62. The pest or weed control at 500 µg/mL with Phakopsora pachyrhizi, in the series on Puccinia recondita and with Alternaria brassicae was 90 to 100% each time.

For the molecule `COc1ccc(C2(Nc3ncc(-c4nnc(C(F)F)o4)cn3)CC2)cc1` [I.157, 5-[5-(difluoromethyl)-1,3,4-oxadiazol-2-yl]-N-[1-(4-methoxyphenyl)cyclopropyl]pyrimidin-2-amine], the chromatographic logP in series [1] (setting [3]) was determined as 2.62. Besides, the pest or weed control at 500 µg/mL with Phakopsora pachyrhizi fell in the range of 90 to 100%; with Puccinia recondita it was 90 to 100%; in the series with Alternaria brassicae it was 70 to 79%. Also, the inhibition of growth at 20 µg/mL in series [2] is 80 to 89%.

For `Fc1ccccc1C1(Nc2ncc(-c3nnc(C(F)(F)F)o3)cn2)CC1` [I.165, N-[1-(2-fluorophenyl)cyclopropyl]-5-[5-(trifluoromethyl)-1,3,4-oxadiazol-2-yl]pyrimidin-2-amine], the chromatographic logP in series [1] (setting [3]) turned out to be 3.47. The pest or weed control at 500 µg/mL with Phakopsora pachyrhizi and in the series on Puccinia recondita was 90 to 100% in each case. Also, the inhibition of growth at 20 µg/mL in series [2] was in the range of 80 to 89%.

On to `FC(F)c1nnc(-c2cnc(Nc3ccccc3-c3ccccc3)nc2)o1` [I.166, N-([biphenyl]-2-yl)-5-[5-(difluoromethyl)-1,3,4-oxadiazol-2-yl]pyrimidin-2-amine], for which the chromatographic logP in series [1] (setting [3]) was 3.37. Besides, the pest or weed control at 500 µg/mL in the series with Phakopsora pachyrhizi lay within 90 to 100%; with Puccinia recondita, 90 to 100%; in the series on Alternaria brassicae, 70 to 79%. Further, the inhibition of growth at 20 µg/mL in series [2] was 80 to 89%.

With `FC(F)c1nnc(-c2cnc(NC3(c4cccc(Cl)c4)CCC3)nc2)o1` [I.175, N-[1-(3-chlorophenyl)cyclobutyl]-5-[5-(difluoromethyl)-1,3,4-oxadiazol-2-yl]pyrimidin-2-amine], the chromatographic logP in series [1] (setting [4]) stood at 3.67. Moreover, the pest or weed control at 500 µg/mL in the series on Puccinia recondita fell in the range of 90 to 100%; with Alternaria brassicae it was 70 to 79%. Moreover, in series [2], the inhibition of growth at 20 µg/mL was 80 to 89%.

Consider `Fc1cccc(F)c1C1(Nc2ncc(-c3nnc(C(F)F)o3)cn2)CCC1` [I.177, 5-[5-(difluoromethyl)-1,3,4-oxadiazol-2-yl]-N-[1-(2,6-difluorophenyl)cyclobutyl]pyrimidin-2-amine], for which, in series [1] (setting [4]), the chromatographic logP worked out at 3.5. Also, the pest or weed control at 500 µg/mL with Phakopsora pachyrhizi is 90 to 100%; in the series with Puccinia recondita, 90 to 100%; in the series on Alternaria brassicae, 80 to 89%. Further, the inhibition of growth at 20 µg/mL in series [2] lay in the range of 90 to 100%.
